Patent US6075132A, “Ursodeoxycholic acid derivatives and methods for producing them” (Bio Research Corporation of Yokohama, priority 1998, dated 2000)
In brackets after ≈: the same amount, converted by molar mass. Like-named read-outs stand apart in the source and are kept apart here.

Test: Solubility in water (membrane-filtered supernatant after 18 h stirring; phenol-sulfuric acid method and HPLC)
Format: physicochemical
Details: for solubility in water relative to that of ursodeoxycholic acid: 1080 min
Procedure: 20 mg of the ursodeoxycholic acid derivative prepared above and shown in Table 1 below was sampled, to which was added 0.2 ml of water and stirred for 18 hours. The resulting supernatant was taken out through filtration with a membrane filter (0.45μm), and analyzed according to the phenol-sulfuric acid method and through HPLC. The condition for HPLC was as follows:
Column: YMC's YMC-Pack ODS-AQ-303 (4.6×250 mm)
Detector: Photo-diode array detector (202 nm)
Amount Charged into Column: 20 μl

Compound | solubility in water relative to that of ursodeoxycholic acid | solubility at 18 h (water) [µg/mL] | Solubility in Water (water, 18 h) [µg/mL] | solubility at 18 h (water, stirred for 18 hours, read-out: Solubility in Water) [µg/mL]
C[C@H](CCC(=O)O)[C@H]1CC[C@H]2[C@@H]3[C@@H](OC(=O)COC4O[C@H](CO)[C@@H](O)[C@H](O)[C@H]4O)C[C@@H]4C[C@H](OC(=O)COC5O[C@H](CO)[C@@H](O)[C@H](O)[C@H]5O)CC[C@]4(C)[C@H]3CC[C@]12C (stereo partly drawn) [3,7-GLG-ursodeoxycholic acid, diglycosyloxyacetyl-3,7-ursodeoxycholic acid] | about 2500 times | 95000 (≈ 114000 µM) | 95000 (≈ 114000 µM) | –
C[C@H](CCC(=O)OCCOC1O[C@H](CO)[C@@H](O)[C@H](O)[C@H]1O)[C@H]1CC[C@H]2[C@@H]3[C@@H](O)C[C@@H]4C[C@H](O)CC[C@]4(C)[C@H]3CC[C@]12C (stereo partly drawn) [24-GLG-ursodeoxycholic acid, glycosyloxyethyl-24-ursodeoxycholic acid] | about 13 times | 511 (≈ 853 µM) | – | –
C[C@H](CCC(=O)O)[C@H]1CC[C@H]2[C@@H]3[C@@H](O)C[C@@H]4C[C@H](O)CC[C@]4(C)[C@H]3CC[C@]12C [Ursodeoxycholic acid, ursodeoxycholic acid] | – | – | – | 38 (≈ 96.8 µM)
